Laboratory results reported in patent US20220081409A1, “PDE9 INHIBITOR AND USE THEREOF” (NANJING TRANSTHERA BIOSCIENCES CO., LTD., priority 2019, published 2022).

Legend:
[1] = Liver microsomal stability in rat liver microsomes; format: in vitro ADME; conditions: 0.5 mg protein/mL, 1 μM compound, 37° C.
Protocol: Experimental Example 2: Evaluation of Liver Microsomal Stability of Compounds Disclosed Herein
Test samples: the compounds disclosed herein and the compound I-8 of international patent application WO2017019723A1 (prepared by referring to the examples for synthesis in WO2017019723A1) having the following structural formula: […]
An appropriate amount of the compound was precisely weighed out and dissolved in DMSO to prepare a 5.0 mM stock solution. The 5.0 mM stock solution was diluted to 1.0 mM with DMSO, and then diluted with water to 10 μM compound working solution for later use (DMSO content in the reaction system: 0.1% v/v).
• (1) The liver microsomes (20 mg protein/mL) were taken out from a −80° C. refrigerator, pre-incubated on a 37° C. water bath thermostatic oscillator for 3 min, and thawed for use. • (2) A mixed solution of the incubation system (without compound and D-NADPH) was prepared according to “composition of the experimental incubation system” described above, and pre-incubated on a 37° C. water bath thermostatic oscillator for 2 min. • (3) Control group (without D-NADPH): 30 μL of water and 30 μL of compound working solution (10 μM) were added to 240 μL of the mixed solution of the incubation system in step (2), and the mixture was vortexed for 30 s and mixed well; the total volume of the mixture was 300 μL; the sample was duplicated. The mixture was placed on a 37° C. water bath thermostatic oscillator for incubation, and timing was started; the sampling was conducted at 0 min and 60 min. • (4) Sample group: 70 μL of […] solution (10 mM) and 70 μL of compound working solution (10 μM) were added to 560 μL of the mixed solution in step (2), and the total volume of the mixture was 700 μL; the mixture was vortexed for 30 s and mixed well; the sample was duplicated. The mixture was placed on a 37° C. water bath thermostatic oscillator for incubation, and timing was started; the sampling was conducted at 0 min, 5 min, 10 min, 20 min, 30 min and 60 min. • (5) The mixture was vortexed for 3 min, and centrifuged at 4000 rpm for 10 min. • (6) 50 μL of the supernatant was taken and added to 150 μL of water, and the resulting mixture was vortexed and mixed well before LC/MS/MS analysis.
The half-life (t1/2) and clearance (Cl) were calculated using the following first-order kinetic formula:
Vd=1/protein content in liver microsomes
Note: k denotes the slope of the logarithm of the remaining amount of a compound vs. time, Vd denotes apparent volume of distribution, and C0 denotes compound concentration at 0 h.
Experiment on Stability of the Compounds Disclosed Herein in Rat Liver Microsomes

[2] = target: T1, PDE9A2 enzyme (Homo sapiens, UniProt O76083); assay: PDE9 enzymatic evaluation; format: biochemical; conditions: fluorescence reading 480 nm/535 nm
T1 construct: purchased BPS 60090
T1 sequence (O76083 1-533 isoform O76083-2): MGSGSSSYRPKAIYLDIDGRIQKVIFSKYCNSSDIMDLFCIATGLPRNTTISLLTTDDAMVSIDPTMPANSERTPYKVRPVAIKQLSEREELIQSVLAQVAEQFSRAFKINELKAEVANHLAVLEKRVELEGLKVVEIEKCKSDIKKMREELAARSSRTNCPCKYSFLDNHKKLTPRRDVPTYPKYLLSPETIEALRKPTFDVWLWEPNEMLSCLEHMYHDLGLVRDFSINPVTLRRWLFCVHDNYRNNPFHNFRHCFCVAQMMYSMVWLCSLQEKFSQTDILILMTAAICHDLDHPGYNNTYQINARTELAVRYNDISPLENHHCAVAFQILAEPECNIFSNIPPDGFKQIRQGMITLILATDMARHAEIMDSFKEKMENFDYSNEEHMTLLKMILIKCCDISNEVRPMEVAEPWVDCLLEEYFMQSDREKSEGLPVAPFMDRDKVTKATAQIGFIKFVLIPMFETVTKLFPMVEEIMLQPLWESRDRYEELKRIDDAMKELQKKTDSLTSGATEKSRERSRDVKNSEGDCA
Protocol: Experimental Example 1: PDE9 Enzymatic Evaluation
Test samples: the compounds disclosed herein, prepared according to the corresponding examples of the present invention.
Preparation of the compounds: Compounds were formulated into 10 mM compound stock solution in DMSO for long term storage. The obtained compound stock solution was 100-fold diluted with DMSO to give 100 μM compound mother liquor, which was 3-fold diluted with DMSO to give 8-10 concentration gradients of diluted compound mother liquor (100×).
Incubation with compound: Diluted compound mother liquor was pipetted into a 384-well plate using an ultramicro-liquid pipetting system (Echo); 200 nL of the diluted compound mother liquor and 10 μL of PDE9A2 enzyme solution were added to each compound well; after centrifugation at 1000 rpm for 1 min, the mixtures were incubated at room temperature for 15 min. Subsequently, 10 μL of the substrate mixture was added, and after centrifugation at 1000 rpm for 1 min, the resulting mixture was incubated at room temperature with oscillating for 30 min. Finally, stop solution was added to end the reaction, and the resulting reaction system was incubated at room temperature with oscillating for 60 min. In the maximum reading well (Max), the compound was replaced by solvent; in the minimum reading well (Min), the compound and the enzyme solution were replaced by solvent.
Detection: the fluorescence readings (F) at 480 nm/535 nm were detected using a microplate reader.
Calculation: The inhibition rate was calculated according to the following formula and IC50 was fitted using GraphPad Prism 5.0: […]

[3] = target: T2, human PDE9 (Homo sapiens, UniProt O76083); conditions: background statement; cited from earlier work
T2 sequence (O76083 whole entry): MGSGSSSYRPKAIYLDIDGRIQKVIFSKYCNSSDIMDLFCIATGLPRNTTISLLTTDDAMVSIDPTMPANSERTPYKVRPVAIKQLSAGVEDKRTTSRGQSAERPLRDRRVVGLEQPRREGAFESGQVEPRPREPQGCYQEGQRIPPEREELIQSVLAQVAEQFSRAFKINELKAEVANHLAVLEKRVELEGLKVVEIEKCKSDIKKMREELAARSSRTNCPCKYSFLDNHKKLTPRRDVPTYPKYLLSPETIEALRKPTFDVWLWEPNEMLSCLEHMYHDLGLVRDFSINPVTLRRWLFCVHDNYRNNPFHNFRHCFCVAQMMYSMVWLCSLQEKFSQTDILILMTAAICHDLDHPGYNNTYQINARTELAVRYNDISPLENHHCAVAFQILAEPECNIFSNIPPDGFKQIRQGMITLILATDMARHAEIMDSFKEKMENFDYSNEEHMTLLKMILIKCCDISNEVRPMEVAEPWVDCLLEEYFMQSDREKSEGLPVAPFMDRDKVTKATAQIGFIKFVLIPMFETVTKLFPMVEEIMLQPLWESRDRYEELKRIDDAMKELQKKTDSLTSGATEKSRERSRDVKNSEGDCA

[4] = target: T2, human PDE9; conditions: substrate of PDE9, background statement; read-out: binding constant (Km); cited from earlier work

half-life at 1 μM [1] [min]	microsomal CLint at 1 μM [1] [µL/min/mg]	IC50 [2] [nM]	Compound	inhibitory activity against PDE9 [3]	also measured
		8	CCc1ccc2[nH]c(=O)c(C#N)c(N3CCC(C)(OC)CC3)c2c1 [Compound 107, 6-ethyl-4-(4-methoxy-4-methylpiperidin-1-yl)-2-oxo-1,2-dihydroquinoline-3-carbonitrile]		
462	3	15	COC1(C)CCN(c2c(C#N)c(=O)[nH]c3ccc(C(C)(C)O)cc23)CC1 [Compound 109, 6-(2-hydroxypropan-2-yl)-4-(4-methoxy-4-methylpiperidin-1-yl)-2-oxo-1,2-dihydroquinoline-3-carbonitrile]		
169	8.2	2	COC1(C)CCN(c2c(C#N)c(=O)[nH]c3ccc(C(O)C4CC4)cc23)CC1 (centres unmarked) [Compound 130, 6-(cyclopropyl(hydroxy)methyl)-4-(4-methoxy-4-methylpiperidin-1-yl)-2-oxo-1,2-dihydroquinoline-3-carbonitrile]		
128	10.8	12	COCCOc1ccc2[nH]c(=O)c(C#N)c(N3CCC(C)(OC)CC3)c2c1 [Compound 145, 4-(4-methoxy-4-methylpiperidin-1-yl)-6-(2-methoxyethoxy)-2-oxo-1,2-dihydroquinoline-3-carbonitrile]		
		12	COC1(C)CCN(c2c(C#N)c(=O)[nH]c3ccc(C)cc23)CC1 [Compound 158, 4-(4-methoxy-4-methylpiperidin-1-yl)-6-methyl-2-oxo-1,2-dihydroquinoline-3-carbonitrile]		
		18	COC1(C)CCN(c2c(C#N)c(=O)[nH]c3ccc(C(C)C)cc23)CC1 [Compound 179, 6-isopropyl-4-(4-methoxy-4-methylpiperidin-1-yl)-2-oxo-1,2-dihydroquinoline-3-carbonitrile]		
57.3	24.2	8	COC1(C)CCN(c2c(C#N)c(=O)[nH]c3ccc(Br)cc23)CC1 [Compound 180, 6-bromo-4-(4-methoxy-4-methylpiperidin-1-yl)-2-oxo-1,2-dihydroquinoline-3-carbonitrile]		
47.5	29.2		N#Cc1c(N2CCCCCC2)c2ccccc2[nH]c1=O [Compound I-8, reference compound]		
			CC(C)Cn1c(=O)n(C)c(=O)c2[nH]cnc21 [IBMX]	no inhibitory activity or low inhibitory activity	
			CC(=O)Nc1ccc(-c2c[nH]c(=O)cn2)cc1 [SKF94120]	no inhibitory activity or low inhibitory activity	
			Nc1nc2c(ncn2[C@@H]2O[C@@H]3COP(=O)(O)O[C@H]3[C@H]2O)c(=O)[nH]1 [cGMP, cyclic guanosine monophosphate]		Km [4]: 170 nM
			OCCN(CCO)c1nc(N2CCCCC2)c2nc(N(CCO)CCO)nc(N3CCCCC3)c2n1 [dipyridamole]	no inhibitory activity or low inhibitory activity	
			COc1ccc(C2CNC(=O)C2)cc1OC1CCCC1 (centres unmarked) [rolipram]	no inhibitory activity or low inhibitory activity	
			CCOC(=O)C1=C[C@]2(CC)CCCN3CCc4c(n1c1ccccc41)[C@@H]32 [vinpocetine]	no inhibitory activity or low inhibitory activity	

Compound	half-life at 1 μM [1] [min]	microsomal CLint at 1 μM [1] [µL/min/mg]	IC50 [2] [nM]	inhibitory activity against PDE9 [3]	also measured
CNC(=O)c1ccc2[nH]c(=O)c(C#N)c(N3CCC4(CC3)CC4)c2c1 [Compound 96, 3-cyano-N-methyl-2-oxo-4-(6-azaspiro[2.5]octan-6-yl)-1,2-dihydroquinoline-6-carboxamide]	193	7.2	5		
